Assay results from publication PMC8958505, “Discovery of Potential Neuroprotective Agents against Paclitaxel-Induced Peripheral Neuropathy” (Journal of Medicinal Chemistry, 2022).
Where a name gives a salt, the structure may show the parent alone.

Legend:
Adrenergic α1D = Adrenergic α1D (Homo sapiens, UniProt P25100); assay: LeadProfilingScreen: Adrenergic α1D; type: binding
[1] = target: Serotonin (5-Hydroxytryptamine) 5-HT3 (Homo sapiens, UniProt P46098); assay: LeadProfilingScreen: Serotonin 5-HT3; type: binding
Muscarinic M1 = Muscarinic M1 (Homo sapiens, UniProt P11229); assay: LeadProfilingScreen: Muscarinic M1; type: binding
Adenosine A1 = Adenosine A1 (Homo sapiens, UniProt P30542); assay: LeadProfilingScreen: Adenosine A1; type: binding
[2] = target: Serotonin (5-Hydroxytryptamine) 5-HT1A (Homo sapiens, UniProt P08908); assay: LeadProfilingScreen: Serotonin 5-HT1A; type: binding
[3] = system: Calcium Channel L-Type, Benzothiazepine; assay: LeadProfilingScreen: Calcium Channel L-Type, Benzothiazepine; type: binding, rat; settings: 10 μM
[4] = system: Glutamate, NMDA, Phencyclidine; assay: LeadProfilingScreen: Glutamate, NMDA, Phencyclidine; type: binding, rat; settings: 10 μM
[5] = system: panel of selected 67 commercially available receptors and enzymes; assay: 67 off-target study (LeadProfilingScreen), whole panel; type: binding; settings: 10 μM
From the text: LeadProfilingScreen (Total # of Assays: 67)
To evaluate, in LeadProfilingScreen, the activity of test compound CN168 (Panlabs # 1251879). […]
Summary of Significant Results
Biochemical assay results are presented as the percent inhibition of specific binding or activity throughout the report.
All other results are expressed in terms of that assay's quantitation method.
• For primary assays, only the lowest concentration with a significant response judged by the assays' criteria, is […]
• Where applicable, either the secondary assay results with the lowest dose/concentration meeting the significance […]
• Unless otherwise requested, primary screening in duplicate with quantitative data (e.g., IC50 ± SEM, Ki ± SEM and nH) are shown where applicable for individual requested assays. In screening packages, primary screening in duplicate with semi-quantitative data (e.g., estimated IC50, Ki and nH) are shown where applicable (concentration range of 4 log units); available secondary functional assays are carried out ([…]) and MEC or MIC determined only if active in primary assays >50% at 1 log unit below initial test concentration. […]

Adenosine A2A = Adenosine A2A (Homo sapiens, UniProt P29274); assay: LeadProfilingScreen: Adenosine A2A; type: binding
CYP 3A4 = target: T1, CYP 3A4 (Homo sapiens, UniProt P08684); assay: Cytochrome P450 testing, CYP 3A4; type: in vitro ADME; settings: testosterone 6-hydroxylation; read-out: Concentration of inhibition (IC50), CYP 3A4
T1 construct: host or cells: baculovirus-infected insect cells (supersomes)
From the text: Cytochrome P450 testing of CN016
The effects of CN016 on the activity of six specific human liver cytochrome P450 isozymes (CYP 1A2, 2C9, 2C19, 2D6, 2E1, 3A4) expressed in baculovirus-infected insect cell supersomes were studied. The reactions used to measure the activity of these enzymes were phenacetin O-deethylation (1A2), diclofenac 4-hydroxylation (2C9), mephenytoin 4-hydroxylation (2C19), dextromethorphan O-demethylation (2D6), chlorzoxazone 6-hydroxylation (2E1) and testosterone 6-hydroxylation (3A4).
Furafylline, sulfaphenazole, tranylcypromine, quinidine, diethyldithiocarbamate and azamulin were used as reference inhibitors of these enzymes. Incubation mixtures containing no CN016 or reference inhibitors were used as controls. The tested result […]
Table S4. Result of Cytochrome P450 testing of CN016

Melatonin MT1 = Melatonin MT1 (Homo sapiens, UniProt P48039); assay: LeadProfilingScreen: Melatonin MT1; type: binding
Bradykinin B2 = Bradykinin B2 (Homo sapiens, UniProt P30411); assay: LeadProfilingScreen: Bradykinin B2; type: binding
Cannabinoid CB1 = Cannabinoid CB1 (Homo sapiens, UniProt P21554); assay: LeadProfilingScreen: Cannabinoid CB1; type: binding
mice = assay: Hemodynamic monitoring (systolic pressure, heart rate) and body weight; type: in vivo, mouse
Protocol: The baseline of every neurological behavior test was measured in 6-week-old C57BL/6J female mice prior to treatment. […] Three behavioral tests were performed on the same groups of animals once per week and no more than two behavioral tests on the same day. The first behavioral experiment was performed on the next day after the last course of treatment. Mechanical hyperalgesia was evaluated by using von Frey filament (#2390, IITC Inc., USA), thermal sensitivity was determined by the tail immersion assay (water temperature: 48–49 °C), and motor coordination was assessed by rotarod (#7750, Ugo Basile Biological Research Apparatus, Italy). After the first drug implantation, the body weight was recorded every 6 days throughout the entire experiment.
Noninvasive automatized tail-cuff system (Visitech Systems, Apex, NC, USA) was used to measure the systolic pressure and the heart rate of conscious mice. All mice were placed in a constant temperature platform at least three times to adapt the system prior to hemodynamic measurement. The root of the tail was mounted on the occlusion and sensor cuff after the mouse was placed in a constant temperature platform. Each mouse was measured for at least 15 repetitions to obtain the mean of systolic pressure and heart rate. The hemodynamic change of each mouse was measured at five different time points.

Neuropeptide Y Y1 = Neuropeptide Y Y1 (Homo sapiens, UniProt P25929); assay: LeadProfilingScreen: Neuropeptide Y Y1; type: binding
[6] = system: proinflammatory cytokines and chemokines; assay: Systemic mouse cytokine and chemokine detection; type: in vivo; settings: pretreatment; day 14 after first paclitaxel injection
Protocol: Samples were obtained from C57BL/6J female mice before and 14 days after the first course of treatment. The blood samples were obtained from the submandibular vein and then centrifuged at 3000 rpm for 15 min at 4 °C to yield plasma. Mouse cytokines/chemokines were quantified using Magnetic Bead 32-Multiplex Panel (Millipore, MCYTMAG-70K-PX32). Statistical significance was analyzed using two-way ANOVA, with p < 0.05 considered significant.

[7] = CN016 (5, 10 or 20 mg/kg) and paclitaxel (4.5 mg/kg)

Chain of Muscarinic M1 (P11229 whole entry): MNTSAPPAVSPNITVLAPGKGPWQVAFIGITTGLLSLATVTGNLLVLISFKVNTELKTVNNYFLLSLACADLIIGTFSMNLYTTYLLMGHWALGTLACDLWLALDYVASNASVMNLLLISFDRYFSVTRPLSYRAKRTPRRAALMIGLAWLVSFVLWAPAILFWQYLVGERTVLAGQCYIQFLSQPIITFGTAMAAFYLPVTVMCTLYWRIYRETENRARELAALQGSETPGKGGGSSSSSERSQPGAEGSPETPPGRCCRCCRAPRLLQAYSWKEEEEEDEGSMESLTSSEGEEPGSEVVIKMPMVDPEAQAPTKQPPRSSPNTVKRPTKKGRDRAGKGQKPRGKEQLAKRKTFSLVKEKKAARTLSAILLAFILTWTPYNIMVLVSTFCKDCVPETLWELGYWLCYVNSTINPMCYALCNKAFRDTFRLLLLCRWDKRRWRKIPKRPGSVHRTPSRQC
Chain of Bradykinin B2 (P30411 whole entry): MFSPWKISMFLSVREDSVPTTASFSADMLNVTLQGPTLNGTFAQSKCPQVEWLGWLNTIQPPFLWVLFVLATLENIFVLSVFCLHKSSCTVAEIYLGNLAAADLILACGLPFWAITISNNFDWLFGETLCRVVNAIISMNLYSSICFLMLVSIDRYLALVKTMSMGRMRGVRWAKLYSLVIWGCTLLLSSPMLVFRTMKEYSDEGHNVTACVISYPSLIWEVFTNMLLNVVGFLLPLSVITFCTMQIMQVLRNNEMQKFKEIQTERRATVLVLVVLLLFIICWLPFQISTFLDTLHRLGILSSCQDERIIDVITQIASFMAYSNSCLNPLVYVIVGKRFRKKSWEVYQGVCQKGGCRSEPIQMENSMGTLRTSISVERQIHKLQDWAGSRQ
Chain of Serotonin (5-Hydroxytryptamine) 5-HT3 (P46098 24-478): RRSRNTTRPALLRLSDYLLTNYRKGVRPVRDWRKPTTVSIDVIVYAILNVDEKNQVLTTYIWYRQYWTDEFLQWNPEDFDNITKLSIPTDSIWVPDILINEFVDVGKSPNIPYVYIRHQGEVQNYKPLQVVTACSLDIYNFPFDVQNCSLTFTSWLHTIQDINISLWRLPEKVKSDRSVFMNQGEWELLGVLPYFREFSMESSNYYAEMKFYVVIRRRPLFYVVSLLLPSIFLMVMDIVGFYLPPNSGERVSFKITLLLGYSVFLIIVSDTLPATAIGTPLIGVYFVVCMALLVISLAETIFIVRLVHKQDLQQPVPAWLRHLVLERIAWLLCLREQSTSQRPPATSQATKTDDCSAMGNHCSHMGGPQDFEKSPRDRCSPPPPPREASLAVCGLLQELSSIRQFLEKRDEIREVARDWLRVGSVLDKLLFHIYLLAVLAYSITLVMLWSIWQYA
Chain of Neuropeptide Y Y1 (P25929 whole entry): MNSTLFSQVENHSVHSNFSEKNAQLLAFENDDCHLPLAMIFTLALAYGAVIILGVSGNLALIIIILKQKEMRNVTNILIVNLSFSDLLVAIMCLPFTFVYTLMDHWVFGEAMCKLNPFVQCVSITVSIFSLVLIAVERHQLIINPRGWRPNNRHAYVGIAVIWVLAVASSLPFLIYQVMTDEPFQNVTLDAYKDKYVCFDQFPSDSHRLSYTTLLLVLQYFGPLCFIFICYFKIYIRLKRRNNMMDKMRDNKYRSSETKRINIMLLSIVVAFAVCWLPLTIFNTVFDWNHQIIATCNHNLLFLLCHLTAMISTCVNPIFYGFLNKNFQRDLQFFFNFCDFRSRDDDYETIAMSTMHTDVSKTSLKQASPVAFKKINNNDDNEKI
Chain of Adenosine A1 (P30542 whole entry): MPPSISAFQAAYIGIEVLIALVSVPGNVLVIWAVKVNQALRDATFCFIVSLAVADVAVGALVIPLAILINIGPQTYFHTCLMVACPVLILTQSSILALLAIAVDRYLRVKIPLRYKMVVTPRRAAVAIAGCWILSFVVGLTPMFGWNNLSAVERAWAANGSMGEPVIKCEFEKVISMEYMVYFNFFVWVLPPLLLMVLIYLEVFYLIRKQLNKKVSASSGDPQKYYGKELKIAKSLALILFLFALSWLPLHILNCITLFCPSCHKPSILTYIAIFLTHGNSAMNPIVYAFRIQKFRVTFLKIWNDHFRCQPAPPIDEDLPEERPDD
Chain of Serotonin (5-Hydroxytryptamine) 5-HT1A (P08908 whole entry): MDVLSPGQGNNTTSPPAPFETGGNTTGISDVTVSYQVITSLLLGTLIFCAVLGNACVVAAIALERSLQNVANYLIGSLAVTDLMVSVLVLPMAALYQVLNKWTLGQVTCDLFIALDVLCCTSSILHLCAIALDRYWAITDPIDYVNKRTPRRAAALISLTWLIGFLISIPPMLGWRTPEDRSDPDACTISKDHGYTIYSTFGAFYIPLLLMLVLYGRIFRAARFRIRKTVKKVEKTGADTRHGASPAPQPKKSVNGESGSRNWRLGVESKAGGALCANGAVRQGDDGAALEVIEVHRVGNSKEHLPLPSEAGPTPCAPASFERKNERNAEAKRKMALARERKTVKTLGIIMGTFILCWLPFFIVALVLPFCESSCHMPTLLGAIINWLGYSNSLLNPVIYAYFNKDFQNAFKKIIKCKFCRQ
Chain of Melatonin MT1 (P48039 whole entry): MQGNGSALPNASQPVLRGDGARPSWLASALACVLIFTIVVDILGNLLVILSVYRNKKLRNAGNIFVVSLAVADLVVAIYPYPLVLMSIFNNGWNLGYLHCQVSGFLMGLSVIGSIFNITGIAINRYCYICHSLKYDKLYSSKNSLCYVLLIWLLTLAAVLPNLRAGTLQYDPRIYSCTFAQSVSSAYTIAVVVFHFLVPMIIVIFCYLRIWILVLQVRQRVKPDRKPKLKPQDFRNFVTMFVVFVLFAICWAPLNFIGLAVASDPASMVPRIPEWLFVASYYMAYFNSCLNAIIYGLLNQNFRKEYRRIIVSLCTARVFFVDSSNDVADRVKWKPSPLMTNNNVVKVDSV
Chain of Adrenergic α1D (P25100 whole entry): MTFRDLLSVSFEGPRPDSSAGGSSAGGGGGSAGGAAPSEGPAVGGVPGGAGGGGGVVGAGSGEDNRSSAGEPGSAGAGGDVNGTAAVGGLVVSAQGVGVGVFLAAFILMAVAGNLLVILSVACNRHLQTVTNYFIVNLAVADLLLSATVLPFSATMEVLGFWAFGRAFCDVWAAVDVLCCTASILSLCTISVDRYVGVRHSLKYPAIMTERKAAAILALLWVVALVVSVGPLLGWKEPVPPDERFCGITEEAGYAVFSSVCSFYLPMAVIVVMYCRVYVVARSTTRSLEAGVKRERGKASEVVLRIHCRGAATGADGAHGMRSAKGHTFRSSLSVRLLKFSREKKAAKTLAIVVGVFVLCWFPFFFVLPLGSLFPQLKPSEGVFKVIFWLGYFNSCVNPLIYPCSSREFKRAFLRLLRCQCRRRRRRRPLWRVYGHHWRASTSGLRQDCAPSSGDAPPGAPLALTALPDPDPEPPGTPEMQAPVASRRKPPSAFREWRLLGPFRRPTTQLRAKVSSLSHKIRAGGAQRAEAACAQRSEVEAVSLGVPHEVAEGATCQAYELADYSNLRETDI
Chain of Adenosine A2A (P29274 whole entry): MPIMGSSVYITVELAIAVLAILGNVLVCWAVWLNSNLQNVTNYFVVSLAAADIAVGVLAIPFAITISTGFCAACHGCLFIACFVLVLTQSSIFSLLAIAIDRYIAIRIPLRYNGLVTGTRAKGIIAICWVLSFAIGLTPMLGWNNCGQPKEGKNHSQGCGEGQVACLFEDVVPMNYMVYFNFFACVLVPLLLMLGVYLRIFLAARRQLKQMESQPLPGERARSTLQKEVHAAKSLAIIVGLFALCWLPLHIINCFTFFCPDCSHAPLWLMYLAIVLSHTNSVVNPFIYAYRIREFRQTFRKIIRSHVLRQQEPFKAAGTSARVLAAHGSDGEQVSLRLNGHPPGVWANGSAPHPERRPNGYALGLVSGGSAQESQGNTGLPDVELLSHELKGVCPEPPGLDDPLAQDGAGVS
T1 sequence (P08684 whole entry): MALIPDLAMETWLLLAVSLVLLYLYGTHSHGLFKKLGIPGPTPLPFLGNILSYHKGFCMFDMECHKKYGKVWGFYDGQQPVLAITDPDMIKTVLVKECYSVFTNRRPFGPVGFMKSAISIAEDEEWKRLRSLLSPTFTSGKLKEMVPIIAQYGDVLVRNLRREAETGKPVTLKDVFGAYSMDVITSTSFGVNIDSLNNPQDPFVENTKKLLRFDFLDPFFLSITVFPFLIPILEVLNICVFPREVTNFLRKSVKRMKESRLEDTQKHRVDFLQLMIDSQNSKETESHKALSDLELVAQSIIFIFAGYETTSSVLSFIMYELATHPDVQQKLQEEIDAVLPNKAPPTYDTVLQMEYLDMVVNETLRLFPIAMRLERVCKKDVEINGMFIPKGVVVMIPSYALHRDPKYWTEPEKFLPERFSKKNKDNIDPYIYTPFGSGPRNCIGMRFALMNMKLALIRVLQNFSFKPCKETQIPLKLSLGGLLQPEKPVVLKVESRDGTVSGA
Chain of Cannabinoid CB1 (P21554 whole entry): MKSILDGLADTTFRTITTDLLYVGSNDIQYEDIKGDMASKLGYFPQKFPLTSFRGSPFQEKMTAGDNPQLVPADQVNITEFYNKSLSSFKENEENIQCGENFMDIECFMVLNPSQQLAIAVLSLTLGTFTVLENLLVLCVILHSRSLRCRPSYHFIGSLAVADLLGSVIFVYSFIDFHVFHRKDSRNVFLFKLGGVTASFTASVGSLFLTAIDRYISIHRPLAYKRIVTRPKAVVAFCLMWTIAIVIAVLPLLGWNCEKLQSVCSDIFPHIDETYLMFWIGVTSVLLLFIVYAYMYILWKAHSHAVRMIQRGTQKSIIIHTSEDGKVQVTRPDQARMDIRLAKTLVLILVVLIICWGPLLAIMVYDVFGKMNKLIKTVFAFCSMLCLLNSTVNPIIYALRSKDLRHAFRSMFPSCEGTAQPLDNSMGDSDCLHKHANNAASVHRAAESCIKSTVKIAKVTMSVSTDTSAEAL

SMILES: O=P(O)(O)CCN1CCC(Nc2cc(N3CCOCC3)nc(NCc3cn(CCCO)nn3)n2)CC1 [CN016, {2-[4-(2-{[1-(3-Hydroxy-propyl)-1H-[1,2,3]triazol-4-ylmethyl]-amino}-6-morpholin-4-yl-pyrimidin-4-ylamino)-piperidin-1-yl]-ethyl}-phosphonic Acid Hydrobromide Salt]
- inhibition at 10 µM (Adrenergic α1D): -6%
- inhibition at 10 µM [1]: -1%
- inhibition at 10 µM (Muscarinic M1): 5%
- inhibition at 10 µM (Adenosine A1): -9%
- inhibition at 10 µM [2]: 2%
- Inhibition (%), Calcium Channel L-Type, Benzothiazepine [3]: -13%
- Inhibition (%), Glutamate, NMDA, Phencyclidine [4]: -4%
- Significant responses (≥ 50% inhibition or stimulation) in the primary assays [5]: No significant results noted
- inhibitory activity for each tested item of the 67 panel [5]: < 20%
- inhibition at 10 µM (Adenosine A2A): 5%
- IC50 (CYP 3A4): > 100 µM
- inhibition at 10 µM (Melatonin MT1): 6%
- inhibition at 10 µM (Bradykinin B2): -4%
- inhibition at 10 µM (Cannabinoid CB1): -5%
- harmful effects, including heart rhythm, systolic blood pressure, and weight change (mice; 20 mg/kg): no harmful effects
- heart rhythm variability (mice; [7]): did not cause
- systolic blood pressure fluctuations (mice; [7]): did not cause
- weight change (mice; [7]): did not cause
- inhibition at 10 µM (Neuropeptide Y Y1): -4%
- proinflammatory cytokines and chemokines in plasma [6]: significant decrease
